Measurements as given in patent US8785452B2, “Anti-infective compounds” (priority 2008, dated 2014).
Read-outs that look alike come from different tables or passages of the source.

Tests used:
[1] = test system: M. tuberculosis H37Rv-GFP; assay: microbe, parasite or virus in culture; assay type: cell-based, Mycobacterium tuberculosis; settings: Mycobacterium tuberculosis, H37RV, Macrophage
Raw264.7 cells [2] = settings: mouse
Raw264.7 cells [3] = assay: Cell number (CellNb) from image analysis of the phenotypic cell-based assay
[4] = confirmation, 20 uM, read-out: QIM Confirm % Inhibition 20 uM
[5] = primary screen, 20 μM, read-out: Primary QIM % Inhibition
[6] = read-out: Primary QIM % Inhibition
[7] = read-out: QIM Confirm % Inhibition 20 uM

Structure (SMILES)	inhibition at 20 µM [1, 4]	inhibition at 20 µM [1, 5]	Primary QIM CellNb (Raw264.7 cells [2]; 5 days, 20 μM)	Primary QIM CellNb (Raw264.7 cells [3]; primary screen, 20 μM)	other results
O=C(N/N=C/c1ccccc1[N+](=O)[O-])c1ccncc1 [IPK 000 043 35]	101%	104%	94.4	245.5	QIM Confirm CellNb 20 uM (Raw264.7 cells [3]; confirmation, 20 uM): 461.5
CCOc1ccc2ccccc2c1/C=N/NC(=O)c1ccncc1 [IPK 000 043 62]	104%	98.2%	98.8	393.8	–
Oc1ccc(Br)cc1/C=N/c1ccccc1O [IPK 000 043 83]	31.3%	-80.9%	17.1	89.0	–
O=[N+]([O-])c1ccc(O)c(/C=N/c2ccccc2O)c1 [IPK 000 044 20]	30.7%	-67.5%	6.3	135.0	–
Oc1ccccc1/N=C/c1cc(Br)cc(Br)c1O [IPK 000 044 41]	29.9%	-120%	34.0	126.8	–
Oc1ccccc1/N=C/c1cc(Cl)cc(Cl)c1O [IPK 000 045 01]	30.6%	-9.3%	24.3	145.0	–
Cc1ccc(C(=O)NC2CCCCCC2)cc1[N+](=O)[O-] [IPK 000 047 06]	69.9%	57.3%	17.6	290.8	–
Cc1ccc(NC(=O)c2ccc([N+](=O)[O-])cc2Cl)cc1C [IPK 000 047 15]	85.8%	69.7%	61.1	281.8	–
Cc1ccc(NC(=O)c2ccc([N+](=O)[O-])cc2Cl)cc1Cl [IPK 000 047 16]	85.1%	69.4%	77.9	280.5	–
CCCCc1ccc(NC(=O)c2ccc([N+](=O)[O-])cc2Cl)cc1 [IPK 000 047 17]	88.5%	57.6%	69.7	152.3	–
CCC(C)c1ccc(NC(=O)c2ccc(Cl)c([N+](=O)[O-])c2)cc1 (stereo not shown) [IPK 000 048 71]	70%	62.1%	22.6	56.5	–
O=C(Nc1ccc(Cl)c(Cl)c1)c1ccc([N+](=O)[O-])cc1Cl [IPK 000 048 99]	73.5%	76.8%	40.3	217.8	–
O=C(Nc1ccc(Cl)cc1[N+](=O)[O-])c1ccc([N+](=O)[O-])cc1Cl [IPK 000 049 00]	–	–	–	–	inhibition at 20 µM [1, 6]: 32.1%; inhibition at 20 µM [1, 7]: 74.2%; Primary QIM CellNb (Raw264.7 cells [2]): 72.2; Primary QIM CellNb (Raw264.7 cells [3]): 108.0
O=C(Nc1cc(Cl)cc(Cl)c1)c1ccc([N+](=O)[O-])cc1Cl [IPK 000 049 03]	48.6%	62.6%	56.0	205.3	–
O=C(Nc1cc(Cl)cc(Cl)c1)c1cc([N+](=O)[O-])ccc1Cl [IPK 000 049 20]	88.6%	71.5%	54.8	155.5	–
O=C(Nc1cccc(C(F)(F)F)c1)Nc1ccc(Cl)c(Cl)c1 [IPK 000 052 50]	76.4%	45%	10.8	44.0	–
O=[N+]([O-])c1cc2c(cc1/C=N/c1ccc(S(=O)(=O)Nc3nccs3)cc1)OCO2 [IPK 000 057 78]	35.5%	-10.9%	12.6	177.0	–
O=[N+]([O-])c1cc(/C=N/c2ccc(S(=O)(=O)NC3NC=CS3)cc2)c2c(c1)COCO2 (stereo not shown) [IPK 000 057 92]	27.2%	-30.7%	23.0	165.3	–
COc1cc(CN(C)NC(=O)c2ccccn2)ccc1OC(=O)c1cccs1 [IPK 000 058 20]	44.3%	98.1%	66.6	344.8	–
O=C(N/N=C/c1ccc[nH]1)c1ccccn1 [IPK 000 058 21]	56%	90.9%	75.7	452.5	–
O=C(N/N=C/c1cc2c(cc1[N+](=O)[O-])OCO2)c1ccncc1 [IPK 000 058 30]	70.8%	95.5%	98.3	315.8	–
Cc1nc2c(o1)NC(N)=C(C#N)C2c1c[nH]nc1C (stereo not shown) [IPK 000 065 03]	73.2%	68.2%	1.1	197.8	–

Structure (SMILES)	inhibition at 20 µM [1, 4]	inhibition at 20 µM [1, 5]	Primary QIM CellNb (Raw264.7 cells [2]; 5 days, 20 μM)	Primary QIM CellNb (Raw264.7 cells [3]; primary screen, 20 μM)	other results
CC(NC(=O)c1cccc(Cl)c1)c1ccccc1 (stereo not shown) [IPK 000 067 51]	73.2%	75.2%	17.9	142.3	–
CCCCN(CCCC)C(=O)c1ccc(C(C)(C)C)cc1 [IPK 000 067 60]	46.6%	63.4%	25.8	164.3	QIM Confirm CellNb 2 uM (Raw264.7 cells [2]; 5 days, 2 uM): 99.7; QIM Confirm CellNb 2 uM (Raw264.7 cells [3]; confirmation, 2 uM): 179.1
CC(NC(=O)c1ccc(C(C)(C)C)cc1)c1ccccc1 (stereo not shown) [IPK 000 067 61]	68.5%	84.3%	28.2	182.0	–
c1cc2c(cc1C13CC4CC(CC(C4)C1)C3)c1c3n2CCNC3CCC1 (stereo not shown) [IPK 000 068 87]	71.4%	73.1%	−12.0	156.8	–
C=CCn1c(Cc2ccccc2)nc2c(cnn2-c2ccccc2)c1=O [IPK 000 073 11]	56.1%	49.1%	−10.5	147.8	QIM Confirm CellNb 0.2 uM (Raw264.7 cells [2]; 5 days): 67.2
O=C(Nc1sc2c(c1C(=O)Nc1ccccc1)CCC2)c1ccccc1Br [IPK 000 073 29]	86.6%	78.6%	55.1	230.5	–
O=C(Nc1sc2c(c1C(=O)Nc1ccccc1)CCC2)c1ccccc1Cl [IPK 000 073 68]	92.6%	88.2%	74.7	202.3	–
Cc1ccc(NC(=O)c2c(NC(=O)c3ccccc3Cl)sc3c2CCC3)cc1 [IPK 000 073 69]	32.3%	87%	14.0	246.5	–
Cc1cccc(NC(=O)c2c(NC(=O)c3ccccc3Cl)sc3c2CCC3)c1 [IPK 000 073 70]	103%	88.6%	56.7	234.0	–
Cc1ccccc1NC(=O)c1c(NC(=O)c2ccccc2Cl)sc2c1CCC2 [IPK 000 073 71]	65.2%	87.5%	29.8	218.3	QIM Confirm CellNb 0.2 uM (Raw264.7 cells [2]; 5 days): 45.3
Cc1ccc(NC(=O)c2c(NC(=O)C(F)(F)F)sc3c2CCC3)c(C)c1 [IPK 000 077 22]	46.6%	-33%	33.3	84.5	–
COc1c(O)cc(/C=N/NC(=O)c2ccncc2)cc1Br [IPK 000 078 30]	105%	108%	97.0	388.3	–
COc1cc(/C=N/NC(=O)c2ccncc2)cc(Br)c1OC [IPK 000 078 53]	107%	84%	95.6	386.0	–
CC/C(Cc1ccccc1)=N\NC(=O)c1ccncc1 [IPK 000 078 86]	108%	96.9%	88.3	462.0	–
Cc1nn(C)cc1/C=N/NC(=O)c1ccncc1 [IPK 000 079 13]	102%	69.6%	97.8	294.0	–
COc1cc(Br)cc(/C=N/NC(=O)c2ccncc2)c1O [IPK 000 079 15]	97.9%	82.4%	90.5	383.3	–
O=S(=O)(Nc1nccs1)c1ccc(/N=C/c2ccccc2O)cc1 [IPK 000 079 88]	28.1%	-69.2%	7.5	181.8	–
CCOc1nnc(NS(=O)(=O)c2ccc(/N=C/c3ccccc3O)cc2)s1 [IPK 000 080 01]	56.6%	14.3%	27.4	409.8	–
COc1ccc(/C(C)=N/NC(N)=S)c(OC)c1 [IPK 000 080 24]	23%	0.2%	67.6	188.8	–
CCOc1ccc(/C(C)=N/NC(N)=S)cc1 [IPK 000 080 37]	–	–	–	–	inhibition at 20 µM [1, 6]: -44%; inhibition at 20 µM [1, 7]: 36%; Primary QIM CellNb (Raw264.7 cells [2]): 62.1; Primary QIM CellNb (Raw264.7 cells [3]): 110.8
C/C(=N\NC(N)=S)c1ccccc1O [IPK 000 080 38]	3.4%	21%	32.1	307.5	–
O=[N+]([O-])c1cc(Br)cc(/C=N/c2ccccc2O)c1O [IPK 000 080 69]	16.5%	-42.5%	37.6	123.5	–
